Source: patent US20140051877A1, “EICOSAPENTAENOIC ACID (EPA) AS POLYUNSATURATED FREE FATTY ACID IN ITS DIRECTLY COMPRESSIBLE POWDER FORM AND PROCESS OF ISOLATION THEREOF” (priority 2011, published 2014)

Experiments:
[1] = Stability of EPA powder at room temperature; assay type: physicochemical; conditions: powder form, no antioxidants added
[2] = Physical characterisation of isolated EPA: solubility; assay type: physicochemical; conditions: solvent chloroform; isolated EPA free fatty acid powder
Experimental: Take 1 litre of fish oil. Maintain temperature to 40-45° C. To it add 1-2% methanolic or ethanolic or propanolic or butanolic sodium or potassium hydroxide 1 litre and stir for ½ an hour. keep aside, it separates into 2 layers, discard an upper layer which contains lower fatty acids. It further separates in to two layers, discard the upper layer. Then in lower layer add 750 ml of acetone or ethyl/ methyl ketone and stir for ½ an hour and keep aside for 20 mins. It precipitates and form two phase (solid and liquid) filter it and discard the solid layer. In the lower liquid layer, after ½ an hour, settle solid compound. On filtration, the solid compound separates. Wash the solid compound 2-3 times with 400 ml of acetone and Evaporate and recover the solvent with temperature not exceeding 40 degree C. This leads to drying of the precipitated EPA at room temperature to form the crystalline mass. The same is passed through the sieve to obtain a dry, directly compressible, free flowing powder of free fatty acid EPA thereof.
Cool fish oil to 12 degree C. to solidify all fatty acids in waxy form which separates from the fish oil. […] It is washed 2-3 times with equal quantity of acetone and Evaporate and recover the solvent with temperature not exceeding 40 degree C. […]

SMILES: CC/C=C\C/C=C\C/C=C\C/C=C\C/C=C\CCCC(=O)O [EPA, Eicosapentaenoic acid]
- Stability [1]: stable at room temperature
- Solubility [2]: freely soluble in chloroform
